Assay results reported in PMC9226124, “Macrocycle-stabilization of its interaction with 14-3-3 increases plasma membrane localization and activity of CFTR” (Nature Communications, 2022).
Several values for one entry are separate records, joined by “and”; a condition that tells them apart may be missing. Equal entries are not always repeated.

Legend:
[1] = target: T1, 14-3-3β/CFTRpS753pS768 complex (Homo sapiens, UniProt P13569+P31946); assay: FP assay, 14-3-3β titration at constant compound concentration (apparent KD); type: binding; conditions: for FP signal, 14-3-3β titration: replicates
T1 construct: His6 (cleaved yes); made in house; peptide synthetic
Protocol: FC-A (100 µM) was added as a positive control and DMSO as the negative control. […] Background polarization was subtracted from all values, n = 3 technical replicates. […] Source data are provided as a Source Data file. […]
The FITC-labeled peptides were dissolved in FP buffer (10 mM HEPES pH 7.4, 150 mM NaCl, 0.1% Tween20, 1 mg/mL BSA) to a final concentration of 100 nM or 10 nM. […] The dilution series were made in 384 Corning Black Round Bottom well plates and their polarization was measured with a Tecan Infinite F500 plate reader (ex. = 485 nm, em. = 535 nm). The method of fitting of the curves was: “log(agonist) vs. response – Variable slope (four parameters)” from GraphPad Prism. The equation is Y = Bottom + (Top-Bottom)/(1 + 10^((LogEC50-X)*HillSlope)).
from the hit validation library.
f the compound, 100 µM FC-A, or both compound and FC-A, 100 µM each. Background polarization was subtracted f
rom all values, n=3 technical replicates.
Source data are provided as a Source Data file.

[2] = target: T2, F508del-CFTR in BHK cells (Homo sapiens, UniProt P13569, DEL508-508); assay: FLIPR membrane potential (FMP) assay; type: cell-based, hamster; conditions: for FMP assay signal (Fig5c) / FMP assay signal (Fig5b): individual replicates
T2 construct: expressed in transfected cells; host or cells: baby hamster kidney (BHK) cells
In short: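 BHK cells expressing F508del-CFTR were incubated 24 h at 37 °C with 20 μM compound. FMP dye plus genistein was added in low-Cl⁻ buffer (pH 7.4), then forskolin after a 2 min baseline. Fluorescence was monitored 5 min; the value is the rate of fluorescence change.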

[3] = CY compound (100 μM), 14-3-3β concentration 0.00025 M
[4] = CY compound (100 μM), 14-3-3β concentration 0.0005 M
[5] = FC-A + CY compound, 14-3-3β concentration 0.00025 M
[6] = FC-A + CY compound, 14-3-3β concentration 0.0005 M

T2 sequence (P13569 with tags, fused parts or gaps DEL508-508): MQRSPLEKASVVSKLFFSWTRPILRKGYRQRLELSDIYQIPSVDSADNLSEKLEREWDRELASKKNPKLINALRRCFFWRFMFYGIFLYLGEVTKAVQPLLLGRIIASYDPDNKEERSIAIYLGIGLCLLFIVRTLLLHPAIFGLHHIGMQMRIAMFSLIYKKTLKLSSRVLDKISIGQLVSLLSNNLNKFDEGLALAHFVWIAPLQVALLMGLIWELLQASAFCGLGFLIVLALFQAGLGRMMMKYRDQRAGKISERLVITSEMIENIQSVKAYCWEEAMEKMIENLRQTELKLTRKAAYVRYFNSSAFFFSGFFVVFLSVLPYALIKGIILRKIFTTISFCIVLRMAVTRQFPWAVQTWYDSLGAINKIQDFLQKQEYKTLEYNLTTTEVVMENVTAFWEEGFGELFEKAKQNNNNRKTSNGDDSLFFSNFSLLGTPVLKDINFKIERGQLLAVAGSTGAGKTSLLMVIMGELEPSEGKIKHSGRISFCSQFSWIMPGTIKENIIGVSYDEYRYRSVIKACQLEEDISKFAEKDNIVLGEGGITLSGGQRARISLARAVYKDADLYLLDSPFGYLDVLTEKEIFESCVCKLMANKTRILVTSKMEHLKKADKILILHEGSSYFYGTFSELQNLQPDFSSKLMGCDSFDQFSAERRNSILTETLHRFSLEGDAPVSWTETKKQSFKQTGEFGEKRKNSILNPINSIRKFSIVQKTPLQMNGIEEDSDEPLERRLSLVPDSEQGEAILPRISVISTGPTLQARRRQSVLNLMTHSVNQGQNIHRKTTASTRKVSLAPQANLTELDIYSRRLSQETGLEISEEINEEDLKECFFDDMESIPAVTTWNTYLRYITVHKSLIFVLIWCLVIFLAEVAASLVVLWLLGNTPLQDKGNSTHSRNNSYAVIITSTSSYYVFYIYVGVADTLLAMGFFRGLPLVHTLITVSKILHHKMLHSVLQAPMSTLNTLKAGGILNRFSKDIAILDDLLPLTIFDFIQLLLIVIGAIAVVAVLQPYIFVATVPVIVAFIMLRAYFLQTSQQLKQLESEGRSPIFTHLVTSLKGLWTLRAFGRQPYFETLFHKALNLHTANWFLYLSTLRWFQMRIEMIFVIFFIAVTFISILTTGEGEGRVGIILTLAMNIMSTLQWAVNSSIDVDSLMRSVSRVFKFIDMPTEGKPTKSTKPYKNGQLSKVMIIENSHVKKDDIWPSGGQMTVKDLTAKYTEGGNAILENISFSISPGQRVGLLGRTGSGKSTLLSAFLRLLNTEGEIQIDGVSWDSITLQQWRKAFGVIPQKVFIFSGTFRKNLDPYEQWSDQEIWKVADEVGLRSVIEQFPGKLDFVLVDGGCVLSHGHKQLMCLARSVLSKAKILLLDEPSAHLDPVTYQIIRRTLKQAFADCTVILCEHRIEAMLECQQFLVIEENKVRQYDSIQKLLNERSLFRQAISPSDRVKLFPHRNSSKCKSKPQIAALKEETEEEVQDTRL
T1 sequence (P31946 whole entry): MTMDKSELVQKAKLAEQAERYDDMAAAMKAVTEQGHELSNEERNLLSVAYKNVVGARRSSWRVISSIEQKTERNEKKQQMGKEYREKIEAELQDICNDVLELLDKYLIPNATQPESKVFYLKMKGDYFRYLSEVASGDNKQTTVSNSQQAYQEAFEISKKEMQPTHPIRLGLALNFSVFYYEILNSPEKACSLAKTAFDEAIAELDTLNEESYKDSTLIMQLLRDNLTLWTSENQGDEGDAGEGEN
T1 sequence (P13569 747-774 limits assumed): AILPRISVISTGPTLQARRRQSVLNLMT

## N=C(N)NCCCC1NCc2ccccc2Sc2ccccc2CNC(=O)C(Cc2ccc(O)cc2)NC(=O)C(CCCN)NC1=O (stereo not shown) [CY007424]
[1]; 100 μM compound, vs […] μM without compound
  stabilization factor (increase of apparent affinity of CFTR peptide to 14-3-3): more than 300 x
[2]; BHK cells, 24 h, 20 μM compound, genistein, forskolin
  CFTR function (FMP assay): clear corrector function
[2]; Compound alone
  FMP assay signal (Fig5c): 416.179 and 423.464 and 390.429 and 379.429
[2]; With CFTR-inh172
  FMP assay signal (Fig5c): 23.036 and 3.107 and 4.393 and -13.071
[2]
  FMP assay signal (Fig5b): 405.536 and 378.214 and 384.321 and 349.393 and 433.679 and 385.071

## N=C(N)NCCCC1NC(=O)C(CCCCN)NCc2ccccc2Sc2ccccc2CNC(=O)C(Cc2ccc(O)cc2)NC1=O (stereo not shown) [CY001951]
[1]; CY compound (100 μM), 14-3-3β concentration 119.2 pM
  Fluorescence polarization signal, 14-3-3β titration: -2.333
[1]; CY compound (100 μM), 14-3-3β concentration 2.44141e-7 M
  Fluorescence polarization signal, 14-3-3β titration: 10.6667 and 8.667
[1]; CY compound (100 μM), 14-3-3β concentration 4.88281e-7 M
  Fluorescence polarization signal, 14-3-3β titration: 15.6667 and 13.6667
[1]; CY compound (100 μM), 14-3-3β concentration 9.76563e-7 M
  Fluorescence polarization signal, 14-3-3β titration: 27.6667 and 26.6667 and 29.6667
[1]; CY compound (100 μM), 14-3-3β concentration 1.95313e-6 M
  Fluorescence polarization signal, 14-3-3β titration: 40.6667 and 36.6667
[1]; CY compound (100 μM), 14-3-3β concentration 3.90625e-6 M
  Fluorescence polarization signal, 14-3-3β titration: 51.6667 and 49.6667 and 46.6667
[1]; CY compound (100 μM), 14-3-3β concentration 7.8125e-6 M
  Fluorescence polarization signal, 14-3-3β titration: 63.6667 and 58.6667 and 54.6667
[1]; CY compound (100 μM), 14-3-3β concentration 1.5625e-5 M
  Fluorescence polarization signal, 14-3-3β titration: 72.6667 and 68.6667 and 66.6667
[1]; CY compound (100 μM), 14-3-3β concentration 3.125e-5 M
  Fluorescence polarization signal, 14-3-3β titration: 82.6667 and 80.6667
[1]; CY compound (100 μM), 14-3-3β concentration 6.25e-5 M
  Fluorescence polarization signal, 14-3-3β titration: 93.6667 and 92.6667 and 96.6667
[1]; CY compound (100 μM), 14-3-3β concentration 0.000125 M
  Fluorescence polarization signal, 14-3-3β titration: 115.667 and 110.667 and 114.667
[1]; [3]
  Fluorescence polarization signal, 14-3-3β titration: 126.667 and 124.667 and 128.667
[1]; [4]
  Fluorescence polarization signal, 14-3-3β titration: 148.667 and 147.667
[1]; FC-A + CY compound, 14-3-3β concentration 1.52588e-8 M
  Fluorescence polarization signal, 14-3-3β titration: 4.333 and 2.333 and 3.333
[1]; FC-A + CY compound, 14-3-3β concentration 6.10352e-8 M
  Fluorescence polarization signal, 14-3-3β titration: 10.3333 and 8.333
[1]; FC-A + CY compound, 14-3-3β concentration 1.2207e-7 M
  Fluorescence polarization signal, 14-3-3β titration: 16.3333 and 18.3333 and 15.3333
[1]; FC-A + CY compound, 14-3-3β concentration 2.44141e-7 M
  Fluorescence polarization signal, 14-3-3β titration: 30.3333 and 31.3333 and 29.3333
[1]; FC-A + CY compound, 14-3-3β concentration 4.88281e-7 M
  Fluorescence polarization signal, 14-3-3β titration: 47.3333 and 45.3333 and 44.3333
[1]; FC-A + CY compound, 14-3-3β concentration 9.76563e-7 M
  Fluorescence polarization signal, 14-3-3β titration: 71.3333 and 70.3333 and 66.3333
[1]; FC-A + CY compound, 14-3-3β concentration 1.95313e-6 M
  Fluorescence polarization signal, 14-3-3β titration: 93.3333 and 85.3333
[1]; FC-A + CY compound, 14-3-3β concentration 3.90625e-6 M
  Fluorescence polarization signal, 14-3-3β titration: 110.333 and 108.333 and 107.333
[1]; FC-A + CY compound, 14-3-3β concentration 7.8125e-6 M
  Fluorescence polarization signal, 14-3-3β titration: 119.333 and 118.333 and 122.333
[1]; FC-A + CY compound, 14-3-3β concentration 1.5625e-5 M
  Fluorescence polarization signal, 14-3-3β titration: 129.333 and 131.333 and 128.333
[1]; FC-A + CY compound, 14-3-3β concentration 3.125e-5 M
  Fluorescence polarization signal, 14-3-3β titration: 139.333 and 142.333 and 140.333
[1]; FC-A + CY compound, 14-3-3β concentration 6.25e-5 M
  Fluorescence polarization signal, 14-3-3β titration: 148.333 and 150.333
[1]; FC-A + CY compound, 14-3-3β concentration 0.000125 M
  Fluorescence polarization signal, 14-3-3β titration: 156.333 and 152.333
[1]; [5]
  Fluorescence polarization signal, 14-3-3β titration: 161.333 and 163.333 and 160.333
[1]; [6]
  Fluorescence polarization signal, 14-3-3β titration: 171.333 and 173.333
[2]
  FMP assay signal (Fig5b): 112.821 and 82.214 and 93.607 and 85.25 and 102.571 and 92.764

## N=C(N)NCCCC1NC(=O)C(CCC(N)=O)NC(=O)C(CCCNC(=N)N)NC(=O)C2Cc3ccccc3CN2Cc2cccc(c2)-c2ccccc2CNC1=O (stereo not shown) [CY007493]
[1]; 14-3-3β 1.90735e-9 M, FC-A + CY compound
  FP signal, 14-3-3β titration: 2 and 4 and 0
[1]; 14-3-3β 1.90735e-9 M, compound 100 μM
  FP signal, 14-3-3β titration: -2
[1]; 14-3-3β 3.8147e-9 M, FC-A + CY compound
  FP signal, 14-3-3β titration: 2 and 1 and -1
[1]; 14-3-3β 3.8147e-9 M, compound 100 μM
  FP signal, 14-3-3β titration: 2 and 3 and 1
[1]; 14-3-3β 7.62939e-9 M, FC-A + CY compound
  FP signal, 14-3-3β titration: 2 and 1 and 0
[1]; 14-3-3β 7.62939e-9 M, compound 100 μM
  FP signal, 14-3-3β titration: 1 (2×) and 4
[1]; 14-3-3β 1.52588e-8 M, FC-A + CY compound
  FP signal, 14-3-3β titration: 7 and 4 and 6
[1]; 14-3-3β 1.52588e-8 M, compound 100 μM
  FP signal, 14-3-3β titration: 5 (2×) and 3
[1]; 14-3-3β 3.05176e-8 M, FC-A + CY compound
  FP signal, 14-3-3β titration: 3 and 4 and 5
[1]; 14-3-3β 3.05176e-8 M, compound 100 μM
  FP signal, 14-3-3β titration: 3 and 1 (2×)
[1]; 14-3-3β 6.10352e-8 M, FC-A + CY compound
  FP signal, 14-3-3β titration: 6 and 9 (2×)
[1]; 14-3-3β 6.10352e-8 M, compound 100 μM
  FP signal, 14-3-3β titration: 5 and 2 (2×)
[1]; 14-3-3β 1.2207e-7 M, FC-A + CY compound
  FP signal, 14-3-3β titration: 10 and 5 and 8
[1]; 14-3-3β 1.2207e-7 M, compound 100 μM
  FP signal, 14-3-3β titration: 3 and 6 and 2
[1]; 14-3-3β 2.44141e-7 M, FC-A + CY compound
  FP signal, 14-3-3β titration: 16 and 15 and 11
[1]; 14-3-3β 2.44141e-7 M, compound 100 μM
  FP signal, 14-3-3β titration: 7 and 3 and 1
[1]; 14-3-3β 4.88281e-7 M, FC-A + CY compound
  FP signal, 14-3-3β titration: 18 and 25 and 20
[1]; 14-3-3β 4.88281e-7 M, compound 100 μM
  FP signal, 14-3-3β titration: 9 and 4 (2×)
[1]; 14-3-3β 9.76563e-7 M, FC-A + CY compound
  FP signal, 14-3-3β titration: 36 and 40 and 38
[1]; 14-3-3β 9.76563e-7 M, compound 100 μM
  FP signal, 14-3-3β titration: 9 and 11 and 10
[1]; 14-3-3β 1.95313e-6 M, FC-A + CY compound
  FP signal, 14-3-3β titration: 52 and 57 and 55
[1]; 14-3-3β 1.95313e-6 M, compound 100 μM
  FP signal, 14-3-3β titration: 11 (2×) and 13
[1]; 14-3-3β 3.90625e-6 M, FC-A + CY compound
  FP signal, 14-3-3β titration: 75 and 77 and 73
[1]; 14-3-3β 3.90625e-6 M, compound 100 μM
  FP signal, 14-3-3β titration: 25 and 27 and 24
[1]; 14-3-3β 7.8125e-6 M, FC-A + CY compound
  FP signal, 14-3-3β titration: 105 (2×) and 102
[1]; 14-3-3β 7.8125e-6 M, compound 100 μM
  FP signal, 14-3-3β titration: 44 and 43 and 34
[1]; 14-3-3β 1.5625e-5 M, FC-A + CY compound
  FP signal, 14-3-3β titration: 123 and 125 and 121
[1]; 14-3-3β 1.5625e-5 M, compound 100 μM
  FP signal, 14-3-3β titration: 59 and 58 and 51
[1]; 14-3-3β 3.125e-5 M, FC-A + CY compound
  FP signal, 14-3-3β titration: 141 (2×) and 139
[1]; 14-3-3β 3.125e-5 M, compound 100 μM
  FP signal, 14-3-3β titration: 76 (2×) and 79
[1]; 14-3-3β 6.25e-5 M, FC-A + CY compound
  FP signal, 14-3-3β titration: 152 and 151 and 156
[1]; 14-3-3β 6.25e-5 M, compound 100 μM
  FP signal, 14-3-3β titration: 97 (2×) and 95
[1]; 14-3-3β 0.000125 M, FC-A + CY compound
  FP signal, 14-3-3β titration: 161 and 159 and 162
[1]; 14-3-3β 0.000125 M, compound 100 μM
  FP signal, 14-3-3β titration: 113 and 114 and 116
[1]; [3]
  Fluorescence polarization signal, 14-3-3β titration: 132 and 131 and 127
[1]; [4]
  Fluorescence polarization signal, 14-3-3β titration: 146 and 152
[1]; [5]
  Fluorescence polarization signal, 14-3-3β titration: 166 and 162
[1]; [6]
  Fluorescence polarization signal, 14-3-3β titration: 175 and 173 and 177
[2]
  FMP assay signal (Fig5b): 74.143 and 78.429 and 43.607 and 72 and 65.679 and 76.179
